Test system: glucagon receptor
Assay: Glucagon antagonist screening assay: adenylate cyclase reaction with rat liver membranes, cAMP measured by Scintillation Proximity Assay
Assay type: biochemical
Description: Young female Sprague-Dawley rats were used for the preparation of liver membranes using the method essentially described by Neville (ibid.) and modified by Pohl et al. (ibid). Ten to 15 rats yielding 60-100 grams of liver were processed per batch. After the rats were euthanized by cervical dislocation, their livers were surgically removed and transferred, as quickly as possible, to an iced beaker. Scissors were used to mince the tissue into pieces approximately 3-6 mm in size. Any connective tissue that was present was removed.
The minced tissue was suspended in ice cold 1 mM sodium bicarbonate at a concentration of approximately 300 g/I. This suspension was processed in batches in a tissue homogenizer with eight strokes of the loose pestle. […]
After centrifugation, as much of the supernatant as possible was carefully decanted and discarded, and the pellets were gently resuspended in the remaining supernatant with three strokes of the loose pestle in a clean tissue homogenizer. […] After thorough mixing, the sucrose concentration was measured with a refractometer and adjusted to between 43.9% and 44 1% sucrose (corresponding to a refractive index between 1.4076 and 1.4080) with either 69% sucrose or water. […]

| Molecule | antagonist activity: CAMP response of rat liver membranes to three concentrations of glucagon (culture broth of the yeast strain, compared with control strains making des-His^1-glucagon and des-His^1-[Glu^9]glucagon) | stimulation of adenylate cyclase activity by culture broth in the absence of exogenous glucagon (yeast culture broth, no exogenous glucagon) |
| --- | --- | --- |
| CSCC[C@H](NC(=O)[C@H](CC(C)C)NC(=O)[C@H](Cc1c[nH]c2ccccc12)NC(=O)[C@H](CCC(N)=O)NC(=O)[C@@H](NC(=O)[C@H](Cc1ccccc1)NC(=O)[C@H](CC(=O)O)NC(=O)[C@H](CCC(N)=O)NC(=O)[C@H](C)NC(=O)[C@H](CCCNC(=N)N)NC(=O)[C@H](CCCNC(=N)N)NC(=O)[C@H](CO)NC(=O)[C@H](CC(=O)O)NC(=O)[C@H](CC(C)C)NC(=O)[C@H](Cc1ccc(O)cc1)NC(=O)[C@H](CCCCN)NC(=O)[C@H](CO)NC(=O)[C@H](Cc1ccc(O)cc1)NC(=O)[C@H](CC(=O)O)NC(=O)[C@H](CO)NC(=O)[C@@H](NC(=O)[C@H](Cc1ccccc1)NC(=O)[C@@H](NC(=O)CNC(=O)[C@H](CCC(N)=O)NC(=O)[C@@H](N)CO)[C@@H](C)O)[C@@H](C)O)C(C)C)C(=O)N[C@@H](CC(N)=O)C(=O)N[C@H](C(=O)O)[C@@H](C)O [des-His^1-glucagon] | weak antagonist | – |
| glucagon [ZB210] | – | stimulation of adenylate cyclase activity even in the absence of exogenous glucagon |

Reference: EP0567562B1, “METHODS FOR DETECTING GLUCAGON ANTAGONISTS” (ZYMOGENETICS, INC., priority 1991, dated 1996)
